Data on 11 compounds can be found in PubChem BioAssay (NCI).

What all share (test): NCI anticancer screen, dose series, 48 h
Experiment [1] concerns SR leukemia.
In experiment [2] the test system is ACHN renal.
Experiment [3] relates to HT29 colon.
Experiment [4] has as its system HOP-62 NSCLC.
The test system of experiment [5] is MOLT-4 leukemia.
In experiment [6] the test system is RXF 393 renal.
Experiment [7] deals with PC-3 prostate.
The subject of experiment [8] is SK-MEL-28 melanoma.
For experiment [9], the system named is A549 NSCLC.
For experiment [10], the system named is HOP-92 NSCLC.

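Tested at 5 concentrations; 48 h exposure; 96-well plates; endpoints linearly interpolated, else capped at highest concentration. Here, GI50 denotes the concentration required for 50% inhibition of growth. TGI marks complete inhibition of growth.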 A value given as a limit tells only on which side of the number the result lay.

Consider `O=c1[nH]cnc2c(C3OC(CO)C(O)C3O)[nH]nc12` (centres undefined), for which the TGI was above 100 µM in experiment [1]; above 100 µM in experiment [2]; above 100 µM in experiment [3]; above 100 µM in [4]; 81 µM in experiment [5]; above 100 µM in experiment [6]. Further, the TGI in experiment [7] and in experiment [8] was above 100 µM throughout.
With `CC(=O)[O-].CC(=O)[O-].[Mn+2].c1ccc(/C(=N\Nc2ccccn2)c2ccccn2)cc1`, the TGI stood at 14.4 µM in [9]; 4.44 µM in experiment [2]; 11.3 µM in experiment [3]; 5.69 µM in [4]; 1.29 µM in [5]; 14 µM in [6]. In addition, the TGI turned out to be 14.5 µM in [7], 11 µM in [10] and 19.7 µM in experiment [8]. Besides, the GI50 in [3] is 0.00276 µM; in [5], 0.00103 µM; in experiment [10], 0.205 µM.
Regarding `COc1cc2[nH]c(C(=O)c3cc(OC)c(OC)c(OC)c3)c(N)c2cc1C#CCO`, the GI50 in experiment [9] is 0.969 µM; in experiment [1], 0.284 µM; in experiment [2], 0.515 µM; in experiment [3] it was 0.353 µM; in experiment [4], 0.322 µM; in [5], 0.649 µM. Also, the GI50 was 0.277 µM in experiment [7], 0.0862 µM in experiment [10] and 0.896 µM in experiment [8]. Besides, the TGI was above 100 µM in experiment [9]; 19.8 µM in experiment [1]; above 100 µM in [2]; above 100 µM in experiment [3]; above 100 µM in experiment [4]; above 100 µM in experiment [5]. Moreover, the TGI in experiment [7] was above 100 µM; in experiment [10], 90.7 µM; in experiment [8], above 100 µM.
Consider `Nc1ccccc1NC(=O)c1ccc(CSc2nc(N3CCOCC3)c3cccn3n2)cc1`, for which the GI50 is 0.977 µM in [9]; 0.301 µM in experiment [1]; 0.863 µM in experiment [2]; 0.411 µM in experiment [3]; 1.49 µM in experiment [4]; 0.464 µM in experiment [6]. Moreover, the results for the GI50 in experiment [7], in experiment [10] and in [8] were 0.752 µM, 0.15 µM and 1 µM, respectively. For the same compound, the TGI in experiment [9] was above 100 µM; in experiment [1], above 100 µM; in experiment [2], above 100 µM; in experiment [3], 4.54 µM; in experiment [4], 45.9 µM; in experiment [6], 2.51 µM. Also, the TGI in [7] was found to be 41.4 µM; in experiment [10], 0.991 µM; in experiment [8] it was 31.3 µM.
In the case of `COc1ccc(NC(=O)C(=O)C(CC2C(=O)NC(=S)NC2=O)C(=O)c2ccc3ccccc3c2)c([N+](=O)[O-])c1` (centres undefined), the TGI in [9], in experiment [2], in [3], in experiment [5], in experiment [7] and in experiment [10] was above 100 µM throughout. In experiment [8], this compound had a TGI above 100 µM.
Consider `O=S(=O)(NCCNc1cc(-c2cn(-c3ccccc3)nc2-c2cccc(O)c2)ccn1)c1ccc(C(F)(F)F)cc1`, for which the GI50 was 3.89 µM in experiment [9]; 1.31 µM in experiment [1]; 2.04 µM in [3]; 2.56 µM in [4]; 2.05 µM in experiment [5]; 2.52 µM in experiment [6]. Also, the GI50 is 2.47 µM in experiment [7], 1.97 µM in experiment [10] and 2.71 µM in experiment [8]. Also, the TGI in [9] is 18.2 µM; in experiment [1], 4.29 µM; in experiment [3], 5.44 µM; in experiment [4], 9.14 µM; in [5], 5.71 µM; in [6] it was 10 µM. Moreover, the TGI is 10.9 µM in experiment [7], 6.39 µM in experiment [10] and 9.83 µM in [8].
As to `CC[C@H](C)c1occ2c(O)c(C(=O)O)c(=O)cc-2c1C`, the TGI in [9] was above 100 µM; in [1], 53.5 µM; in experiment [2], 65.4 µM; in experiment [3], 62.3 µM; in experiment [4] it was 69.1 µM; in experiment [5] it was 54.3 µM. The TGI in experiment [6] was 33.5 µM; in experiment [7] it was above 100 µM; in experiment [10], 49.6 µM.
Take `CC[O-].CC[O-].[O-]c1ccccc1C=Nc1ccccc1.[O-]c1ccccc1C=Nc1ccccc1.[Ti+4]`: the GI50 is above 100 µM in experiment [9]; 26.9 µM in experiment [1]; 23.8 µM in experiment [2]; above 100 µM in experiment [3]; above 100 µM in [4]; 28.4 µM in experiment [5]. Also, the GI50 in experiment [6], in [10] and in experiment [8] was above 100 µM each time. Besides, the TGI in [9], in experiment [1], in [2], in experiment [3], in experiment [4] and in experiment [5] was above 100 µM in each case. Moreover, the TGI in experiment [6], in experiment [10] and in experiment [8] was above 100 µM in each case.
Turning to `C[C@]12CCC3c4ccc(OC(=O)c5ccccc5)cc4CC[C@H]3C1CC[C@@H]2OC(=O)C12OC1CCC2=O` (some centres undefined), the TGI in experiment [9] turned out to be 10.3 µM; in [1], 13.5 µM; in experiment [2] it was 10.4 µM; in [3], 7.55 µM; in [4], 11.9 µM; in experiment [5], 5.78 µM. Also, the TGI in experiment [6] was determined as 4.51 µM; in experiment [10], 35.6 µM; in [8], 10.7 µM.
Turning to `CCCCCCCC1c2cc3[nH]c(cc4nc(cc5[nH]c(cc(n2)[C@@]1(C)CC(=O)N(C)C)c(C)c5CCC(=O)O)C(CCC(=O)O)=C4C)cc3C` (some centres undefined), the TGI in experiment [9] was above 100 µM; in experiment [1], 44.6 µM; in experiment [2], 35.8 µM; in [3], 39.8 µM; in experiment [4], 35.4 µM; in experiment [6] it was 33.9 µM. The TGI in experiment [7] was determined as 64 µM; in [10], 43.8 µM; in [8] it was 35.8 µM.
For `O=C1CN(c2cccc(C(F)(F)F)c2)C(=O)CN1NCNN1CC(=O)N(c2cccc(C(F)(F)F)c2)CC1=O`, the TGI in [9], in experiment [1], in experiment [2], in experiment [3], in experiment [4] and in experiment [5] was above 100 µM throughout. Also, the TGI in [7] and in [8] was above 100 µM throughout.
